Key:
factor Xa, human = factor Xa, human (Homo sapiens, UniProt P00742); assay: Inhibition of factor Xa (table title: Affinity to receptors); type: biochemical
Source text: The inhibition of factor Xa by the compounds according to the invention and the measurement of the anticoagulant and antithrombotic activity can be determined by conventional in-vitro or in-vivo methods. A suitable method is described, for example, by J. Hauptmann et al. in Thrombosis and Haemostasis 1990, 63, 220-223.
The inhibition of factor Xa can be measured, for example, by the method of T. Hara et al. in Thromb. Haemostas. 1994, 71, 314-319.

TF/VIIa = TF/VIIa (Homo sapiens, UniProt P08709); assay: Inhibition of TF/VIIa (table title: Affinity to receptors); type: biochemical
Source text: The inhibition of factor VIIa by the compounds according to the invention and the measurement of the anticoagulant and antithrombotic activity can be determined by conventional in-vitro or in-vivo methods. A conventional method for the measurement of the inhibition of factor VIIa is described, for example, by H. F. Ronning et al. in Thrombosis Research 1996, 84, 73-81.

factor Xa, human, sequence (P00742 235-488 limits assumed): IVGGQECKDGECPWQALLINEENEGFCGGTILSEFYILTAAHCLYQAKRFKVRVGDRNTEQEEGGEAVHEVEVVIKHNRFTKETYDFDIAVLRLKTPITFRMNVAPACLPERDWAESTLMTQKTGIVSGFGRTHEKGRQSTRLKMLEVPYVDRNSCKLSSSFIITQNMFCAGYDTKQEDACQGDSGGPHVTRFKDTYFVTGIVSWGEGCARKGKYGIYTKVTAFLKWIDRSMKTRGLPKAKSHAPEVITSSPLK
factor Xa, human, sequence (P00742 41-179 limits assumed): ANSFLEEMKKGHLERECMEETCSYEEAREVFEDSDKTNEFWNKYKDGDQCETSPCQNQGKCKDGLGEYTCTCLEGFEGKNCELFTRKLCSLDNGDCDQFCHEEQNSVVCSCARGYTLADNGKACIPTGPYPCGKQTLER
TF/VIIa, sequence (P08709 213-466 limits assumed): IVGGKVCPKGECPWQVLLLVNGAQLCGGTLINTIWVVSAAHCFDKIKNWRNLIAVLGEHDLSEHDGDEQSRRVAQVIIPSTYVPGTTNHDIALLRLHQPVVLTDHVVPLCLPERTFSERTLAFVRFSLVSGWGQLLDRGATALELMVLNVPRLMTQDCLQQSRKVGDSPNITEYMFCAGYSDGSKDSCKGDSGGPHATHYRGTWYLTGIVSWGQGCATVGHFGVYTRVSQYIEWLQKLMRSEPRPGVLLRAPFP
TF/VIIa, sequence (P08709 61-212 limits assumed): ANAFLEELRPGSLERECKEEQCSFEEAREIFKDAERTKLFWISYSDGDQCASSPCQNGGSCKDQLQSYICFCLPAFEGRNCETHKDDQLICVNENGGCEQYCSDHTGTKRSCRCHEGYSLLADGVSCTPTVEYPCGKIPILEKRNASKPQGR
TF/VIIa, sequence (P13726 33-295 partner): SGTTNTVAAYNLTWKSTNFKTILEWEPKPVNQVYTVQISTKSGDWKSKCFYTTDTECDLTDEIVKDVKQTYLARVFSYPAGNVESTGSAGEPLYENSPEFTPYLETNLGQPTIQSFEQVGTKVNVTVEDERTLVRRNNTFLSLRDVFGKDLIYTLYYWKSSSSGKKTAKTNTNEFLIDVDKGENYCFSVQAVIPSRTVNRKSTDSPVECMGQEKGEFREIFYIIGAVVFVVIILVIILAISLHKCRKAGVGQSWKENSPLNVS

IC50 (factor Xa, human) [nM] | IC50 (TF/VIIa) [nM] | SMILES
10 | 25 | CN(CC(=O)Nc1ccc(-c2ccccc2S(N)(=O)=O)cc1)c1cccc(C(=N)N)c1 [N-(2′-aminosulfonylbiphenyl-4-yl)-2-[(3-amidinophenyl)-N-methylamino]acetamide]
120 | 31 | CCCN(CC(=O)Nc1ccc(-c2ccccc2S(C)(=O)=O)cc1)c1cccc(C(=N)N)c1 [N-(2′-methylsulfonylbiphenyl-4-yl)-2-[(3-amidinophenyl)-N-propylamino]acetamide]
480 | 370 | CC(C)CN(CC(=O)Nc1ccc(-c2ccccc2S(N)(=O)=O)cc1)c1cccc(C(=N)N)c1 [N-(2′-aminosulfonylbiphenyl-4-yl)-2-[(3-amidinophenyl)-N-isobutylamino]acetamide]
130 | 44 | CCCN(CC(=O)Nc1ccc(-c2ccccc2S(N)(=O)=O)cc1)c1cccc(C(=N)N)c1 [N-(2′-aminosulfonylbiphenyl-4-yl)-2-[(3-amidinophenyl)-N-propylamino]acetamide]
81 | 15 | N=C(N)c1cccc(N(CC(=O)Nc2ccc(-c3ccccc3S(N)(=O)=O)cc2)Cc2ccccc2)c1 [N-(2′-aminosulfonylbiphenyl-4-yl)-2-[(3-amidinophenyl)-N-benzylamino]acetamide]
